Data taken from patent publication US10975056B2 (GlaxoSmithKline Intellectual Property Development Limited, priority 2016, dated 2021).
pEC50, pIC50: −log10 of the molar value. Structures can show the parent of a compound that is named as a salt.

Legend:
[1] = system: erythroid progenitor cells (EPCs); assay: Fetal hemoglobin (HbF) ELISA in day 7 erythroid progenitor cells; assay type: cell-based, human; settings: Homo sapiens, Erythroid progenitor cell, HbF ELISA, day 7 EPCs, 5 days; read-out: EPC ELISA (pEC50 category) (converted);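 further: for fetal hemoglobin induction normalized to vehicle-treated cells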
How it was run: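 HbF induction was read by anti-HbF sandwich ELISA (HRP/TMB, OD450) on lysates and normalized to vehicle-treated cells. Cells were day 7 erythroid progenitors derived from human bone marrow CD34+ cells, seeded at 1,000/well with 3 U/mL rhEPO. Compound was given for 5 days at 37 °C at final concentrations […].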

DNMT1 = DNMT1 (Homo sapiens, UniProt P26358); assay: DNMT1 biochemical activity, breaklight assay and/or SPA assay; settings: for DNMT1 BioChemical (pIC50 category) / IC50: binned activity in either the breaklight or the SPA assay; for IC50: read-out: DNMT1 BioChemical (pIC50 category) (converted)
MV-4-11 AML cells = assay: MV-4-11 cell proliferation assay (CellTiter-Glo, 6 days); assay type: cell-based; settings: Homo sapiens, MV4-11, 144 h; 6 days treatment; binning as pXC50; read-out: MV4-11 Anti-proliferative activity (EC50 category)
Procedure: MV-4-11 Anti-Proliferative Activity (pEC50 Category)
Cell proliferation assay. Optimal cell seeding density was determined empirically for MV-4-11 AML cells by examining the growth of a wide range of seeding densities in a 384-well format to identify conditions that permitted maximal and continued proliferation for 6 days. MV-4-11 cells were plated in duplicate plates 24 hours before treatment with a 20-point two-fold dilution series of compound or 0.15% DMSO. Plates were incubated for 6 days at 37° C. in 5% CO2. Cells were then lysed with CellTiter-Glo (CTG) (Promega) and chemiluminescent signal was detected with an appropriate microplate reader. In addition, an untreated plate of cells was harvested at the time of compound addition (T0) to quantify the initial cell density. CTG values obtained after 6 days of treatment were expressed as a percent of the T0 value and plotted against compound concentration. Data were fit with a four parameter equation to generate a concentration response curve from which growth IC50 values were calculated.

human full length DNMT1 = human full length DNMT1 (Homo sapiens (Human), UniProt P26358); assay: DNMT1 breaklight assay; assay type: biochemical; settings: repeated experimental runs, read-out: average IC50 against DNMT1
Procedure: DNMT1 breaklight in vitro assays were conducted in a total volume of 50 μl in a standard 384 well format, using black non-binding surface microplates (Corning 3575). Five μl of human full length DNMT1 (produced internally), used at a final concentration of 40 nM, was added to 5 μl of substrate mixture containing final concentrations of 125 nM hemi methylated oligonucleotide (synthesized at ATD Bio; 5′-FAM-[…]5[…]5G5TAGAT-3′ where 5=methyl deoxycitidine) and 2 μM ultrapure SAM (Cisbio #62SAHZLD). Negative control wells used 5 μl of DNMT1 and 5 μl of oligonucleotide but 0 μM SAM. All reagents were made up in 1× assay buffer (20 mM Tris pH 6.8, 25 mM NaCl, 0.5 mM MgCl2, 0.01% Triton X100 and 1 mM DTT). The reaction was incubated at 26° C. for 45 min and then stopped with the addition of 40 μl detection reagent. Detection reagent, made up in 1× Gla assay buffer (20 mM Tris pH 8.0, 80 mM NaCl, 0.75 mM MgCl2, 0.01% Triton X100 and 1 mM DTT) has a final concentration of 100 μM SAH (Sigma #A9384) and 0.0008 units/μl Gla1 restriction endonuclease (Sibenzyme #E494). Following addition of the detection reagent the plate was incubated in the dark at room temperature for 5 hr. Fluorescence intensity was then measured on the PHERAstar FS (BMG Labtech) at Ex 485 nm and Em 520 nm, with a gain of 400 and an integration time of 100 ms.

Sequence of DNMT1 (P26358 whole entry, looked up): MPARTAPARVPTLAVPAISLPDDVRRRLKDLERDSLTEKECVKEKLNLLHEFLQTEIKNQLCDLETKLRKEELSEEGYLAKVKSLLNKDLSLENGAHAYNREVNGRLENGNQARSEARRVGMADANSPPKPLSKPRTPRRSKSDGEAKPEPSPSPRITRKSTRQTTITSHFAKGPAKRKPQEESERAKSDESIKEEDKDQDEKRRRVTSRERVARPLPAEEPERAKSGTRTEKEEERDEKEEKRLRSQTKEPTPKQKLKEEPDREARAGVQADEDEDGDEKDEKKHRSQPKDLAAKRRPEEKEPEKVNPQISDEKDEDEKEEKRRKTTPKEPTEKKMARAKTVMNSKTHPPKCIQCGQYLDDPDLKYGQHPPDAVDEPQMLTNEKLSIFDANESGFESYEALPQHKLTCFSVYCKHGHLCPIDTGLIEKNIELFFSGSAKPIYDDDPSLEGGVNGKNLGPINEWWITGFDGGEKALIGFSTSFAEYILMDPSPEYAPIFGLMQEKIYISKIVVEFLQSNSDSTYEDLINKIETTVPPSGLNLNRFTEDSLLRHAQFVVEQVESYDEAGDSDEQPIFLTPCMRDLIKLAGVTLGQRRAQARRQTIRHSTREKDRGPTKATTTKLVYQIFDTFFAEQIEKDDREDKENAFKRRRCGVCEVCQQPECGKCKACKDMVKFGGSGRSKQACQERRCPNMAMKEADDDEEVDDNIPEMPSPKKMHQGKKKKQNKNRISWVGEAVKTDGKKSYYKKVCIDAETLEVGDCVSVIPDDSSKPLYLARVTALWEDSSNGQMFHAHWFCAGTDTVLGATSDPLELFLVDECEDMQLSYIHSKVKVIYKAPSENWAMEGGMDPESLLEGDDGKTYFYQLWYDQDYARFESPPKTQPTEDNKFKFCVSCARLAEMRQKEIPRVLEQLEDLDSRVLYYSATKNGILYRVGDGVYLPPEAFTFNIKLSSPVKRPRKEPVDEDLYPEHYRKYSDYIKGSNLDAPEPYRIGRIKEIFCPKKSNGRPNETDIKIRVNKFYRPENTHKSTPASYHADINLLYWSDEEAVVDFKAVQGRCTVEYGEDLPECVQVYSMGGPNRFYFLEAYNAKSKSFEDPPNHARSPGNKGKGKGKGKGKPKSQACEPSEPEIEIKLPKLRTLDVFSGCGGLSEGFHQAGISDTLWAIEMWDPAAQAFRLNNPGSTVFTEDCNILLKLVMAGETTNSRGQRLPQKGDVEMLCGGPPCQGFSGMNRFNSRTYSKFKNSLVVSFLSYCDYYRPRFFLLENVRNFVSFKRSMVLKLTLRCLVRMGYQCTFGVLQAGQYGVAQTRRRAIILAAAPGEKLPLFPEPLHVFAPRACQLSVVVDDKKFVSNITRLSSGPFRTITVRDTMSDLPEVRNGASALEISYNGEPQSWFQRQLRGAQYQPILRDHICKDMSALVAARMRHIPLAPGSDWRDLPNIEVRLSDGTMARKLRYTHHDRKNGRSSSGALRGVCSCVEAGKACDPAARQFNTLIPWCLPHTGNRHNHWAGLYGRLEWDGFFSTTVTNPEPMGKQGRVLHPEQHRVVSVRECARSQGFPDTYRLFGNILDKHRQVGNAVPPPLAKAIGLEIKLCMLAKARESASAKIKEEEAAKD
Sequence of human full length DNMT1 (P26358 whole entry): as the sequence (P26358 whole entry, looked up) above

EC50 [1] [µM]	DNMT1 BioChemical (pIC50 category) (DNMT1)	pEC50 (MV-4-11 AML cells)	IC50 (DNMT1) [µM]	pIC50 (human full length DNMT1)	SMILES	average pIC50 against DNMT1 (DNMT1; breaklight assay and/or SPA assay, repeated experimental runs)
< 0.316	D (Category D: ≥6.5)	4.50 to 6.00	–	–	N#Cc1c(SC(C(N)=O)c2ccccc2)nc(N2CCCNCC2)c(C#N)c1C1CC1 (stereo not shown) [Example 4, 2-((3,5-dicyano-4-cyclopropyl-6-(1,4-diazepan-1-yl)pyridin-2-yl)thio)-2-phenylacetamide]	–
< 0.316	D (Category D: ≥6.5)	4.50 to 6.00	–	–	CN(C)C1CCCN(c2nc(SC(C(N)=O)c3ccccc3)c(C#N)c(C3CC3)c2C#N)C1 (stereo not shown) [Example 18, 2-((3,5-Dicyano-4-cyclopropyl-6-(3-(dimethylamino)piperidin-1-yl)pyridin-2-yl)thio)-2-phenylacetamide]	–
> 31.6	–	4.50 to 6.00	0.316 to 1	–	N#Cc1c(SC(C(N)=O)c2ccncc2)nc(N2CCCNCC2)c(C#N)c1C1CC1 (stereo not shown) [Example 31, 2-((3,5-dicyano-4-cyclopropyl-6-(1,4-diazepan-1-yl)pyridin-2-yl)thio)-2-(pyridin-4-yl)acetamide]	–
1 to 31.6	–	4.50 to 6.00	0.316 to 1	–	N#Cc1c(SC(C(N)=O)c2ccncc2)nc(N2CC[C@H](O)C2)c(C#N)c1C1CC1 (stereo partly drawn) [Example 34, 2-((3,5-dicyano-4-cyclopropyl-6-((S)-3-hydroxypyrrolidin-1-yl)pyridin-2-yl)thio)-2-(pyridin-4-yl)acetamide]	–
1 to 31.6	D (Category D: ≥6.5)	4.50 to 6.00	–	–	CCc1c(C#N)c(SC(C(N)=O)c2ccccc2)nc(N2CCC3(CNC3)C2)c1C#N (stereo not shown) [Example 44, 2-((3,5-Dicyano-4-ethyl-6-(2,6-diazaspiro[3.4]octan-6-yl)pyridin-2-yl)thio)-2-phenylacetamide]	–
1 to 31.6	D (Category D: ≥6.5)	–	–	< 6.12	CCc1c(C#N)c(SC(C(N)=O)c2ccccc2)nc(N2CCC2)c1C#N (stereo not shown) [Example 58, 2-[[6-(azetidin-1-yl)-3,5-dicyano-4-ethyl-2-pyridyl]sulfanyl]-2-phenyl-acetamide]	–
< 0.316	D (Category D: ≥6.5)	–	–	≥ 6.30	CCc1c(C#N)c(SC(C(N)=O)c2ccccc2)nc(N2C[C@@H](C)N[C@@H](C)C2)c1C#N (stereo partly drawn) [Example 61, 2-((3,5-Dicyano-6-((3S,5R)-3,5-dimethylpiperazin-1-yl)-4-ethylpyridin-2-yl)thio)-2-phenylacetamide]	–
1 to 31.6	–	4.50 to 6.00	0.316 to 1	–	CCc1c(C#N)c(N[C@@H](C(N)=O)c2ccccc2)nc(N2CCCN(CCO)CC2)c1C#N [Example 114, (2R)-2-({3,5-Dicyano-4-ethyl-6-[4-(2-hydroxyethyl)-1,4-diazepan-1-yl]pyridin-2-yl}amino)-2-phenylacetamide]	–
< 0.316	D (Category D: ≥6.5)	4.50 to 6.00	–	–	CCc1c(C#N)c(SC(C(N)=O)c2ccccc2)nc(N2CCN(CCN)CC2)c1C#N (stereo not shown) [Example 123, 2-((6-(4-(2-Aminoethyl)piperazin-1-yl)-3,5-dicyano-4-ethylpyridin-2-yl)thio)-2-phenylacetamide]	–

SMILES	EC50 [1] [µM]	DNMT1 BioChemical (pIC50 category) (DNMT1)	pEC50 (MV-4-11 AML cells)	IC50 (DNMT1) [µM]	pIC50 (human full length DNMT1)	average pIC50 against DNMT1 (DNMT1; breaklight assay and/or SPA assay, repeated experimental runs)
N#Cc1c(SC(C(N)=O)c2ccccc2)nc(N2CCC(N3CCCC3)CC2)c(C#N)c1C1CC1 (stereo not shown) [Example 42, 2-((3,5-Dicyano-4-cyclopropyl-6-(4-(pyrrolidin-1-yl)piperidin-1-yl)pyridin-2-yl)thio)-2-phenylacetamide trifluoroacetate]	< 0.316	D (Category D: ≥6.5)	6.00 to 6.50	–	–	–
CCc1c(C#N)c(SC(C(N)=O)c2ccccc2)nc(N2CCC(C3CCNCC3)CC2)c1C#N (stereo not shown) [Example 122, 2-((6-([4,4′-Bipiperidin]-1-yl)-3,5-dicyano-4-ethylpyridin-2-yl)thio)-2-phenylacetamide; 2,2,2-trifluoroacetic acid]	< 0.316	D (Category D: ≥6.5)	6.00 to 6.50	–	–	> 6.5
